2 compounds from PMC12575728, “Galactose-modified small molecule modulator targets RORα to enhance circadian rhythm and alleviate periodontitis-associated alveolar bone loss” (Bone Research, 2025) can be followed below.

Where two headings read alike, the source gives them in different places.

The nature of series [1]: Pharmacokinetic studies in mice (IP and IV). The series is classed as in vivo. The conditions noted are these: for AUC / Cmax / Tmax / half-life / concentration at 8 h / bioavailability / MRT inf: male, C57BL/6 J, mouse, plasma; for concentration at 8 h: read-out: mean plasma concentration 8 h after injection; for bioavailability: intraperitoneal, IP versus IV.
The subject of a further series is human U2OS cells. Description: CCK-8 assay and live-dead staining. The series is classed as cell-based. The settings on record: 1-100 μmol/L, 24, 48, 72 h, pronounced above 10 μmol/L. The protocol: U2OS cells were seeded at a density of 10 000 cells per well in a 96-well plate, with 100 μL of culture medium added to each well. The cells were incubated at 37 °C in a 5% CO2 atmosphere for 24 h or until they reached the logarithmic growth phase. Following this, the cells were treated with SR1078, Gala-SR, Malt-SR, and Mann-SR and incubated for 24, 48, and 72 h. 10 μL of CCK-8 reagent was added to each well, and the plate was returned to the incubator for an additional 1–4 h. Absorbance at 450 nm was then measured using a microplate reader. The average absorbance for each well was calculated, and relative cell viability was determined by comparing the absorbance values to those of the control group.
332 Figure S25. After U2OS cells were treated with various concentrations (0 ~ 50 μM) of SR1078,
333 Gala-SR, Malt-SR, and Mann-SR for 24 hours, live and dead cells were labeled using the
334 Calcein-AM/PI double-staining method. Scale bar: 50 μm.
Body weight changes (%) in
338 C57BL/6J mice (n = 4) after 7 days of administration of Gala-SR, SR1078, or DMSO at doses of 10
339 mg/kg and 50 mg/kg via IP were measured. […]

The next series addresses T1, RORγ (Homo sapiens, UniProt P51449).
T1 construct: expressed in transfected cells; host or cells: HEK293T
T1 sequence (P51449 1-518): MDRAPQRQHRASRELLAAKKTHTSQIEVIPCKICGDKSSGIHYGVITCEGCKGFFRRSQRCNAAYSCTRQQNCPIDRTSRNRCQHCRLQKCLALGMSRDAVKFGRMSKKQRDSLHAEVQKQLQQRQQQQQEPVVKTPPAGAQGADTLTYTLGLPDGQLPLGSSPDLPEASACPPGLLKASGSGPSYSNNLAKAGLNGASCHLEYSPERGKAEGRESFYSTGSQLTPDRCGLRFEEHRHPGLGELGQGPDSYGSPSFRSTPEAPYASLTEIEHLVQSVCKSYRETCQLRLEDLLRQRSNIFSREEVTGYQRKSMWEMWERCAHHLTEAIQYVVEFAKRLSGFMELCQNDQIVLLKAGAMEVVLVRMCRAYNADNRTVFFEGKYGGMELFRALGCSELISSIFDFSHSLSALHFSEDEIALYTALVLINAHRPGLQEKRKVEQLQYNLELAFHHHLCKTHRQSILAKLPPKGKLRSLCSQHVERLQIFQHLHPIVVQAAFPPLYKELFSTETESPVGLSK
Description: Luciferase reporter assay (G6Pase or FGF21 promoter) in HEK293T cells cotransfected with RORγ. The series is classed as cell-based. The conditions noted are these: 5 μmol/L; for luminescence intensity of G6Pase and FGF21 reporter genes: compared to DMSO. The text has this: HEK293T cells were transfected with Lipofectamine 8000 (ThermoFisher) strictly following the manufacturer’s instructions. Cotransfected HEK293T cells with RORα or RORγ plasmid and a reporter consisting of the G6Pase or FGF21 promoters upstream of a luciferase reporter gene. […] The Lumicycle instrument detects luminescence and records the numerical value.
In general terms: Reporter assays use an easily measured gene product as a stand-in for the process of interest.

The test system of another series is PER2::LUC mice. Description: Real-time bioluminescence recording of PER2::LUC mice. The settings on record: 10 mg/kg IP at ZT0. The series is classed as in vivo. The procedure: PER2::LUC mice at ages of 2–3 months-old were housed in 12:12 light-dark conditions for two weeks before the experiments.[33] Gala-SR and SR1078 (10 mg/kg) were dissolved in DMSO and I.P.injected into mouse at ZT0. After 1 h, D-luciferin was I.P. injected into mouse for another 0.5 h. Mice were then imaged on IVIS 673 Lumina III system and analyzed with live imaging software.

For series [2], the system named is Per2-dLuc and Bmal1-dLuc U2OS cells. Description: Real-time bioluminescence monitoring of Per2-dLuc and Bmal1-dLuc U2OS cells. The series is classed as cell-based, human. The settings on record: for dose dependence of the enhancing effect on the amplitude of BMAL1: Bmal1-dLuc U2OS cells, 1-10 μM; for fluctuation degree (amplitude) of bioluminescence intensity / period or phase of the bioluminescence / overall bioluminescence levels: Bmal1-dLuc and Per2-dLuc U2OS cells, 2 μmol/L; for overall bioluminescence levels: vs DMSO. The protocol: Two clonal circadian reporter cell lines, Bmal1-dLuc and Per2-dLuc, were established and used in this study.[36] These two cell lines display robust cellular rhythmicity with near anti-phasic oscillation of bioluminescence expression. The lentivirus preparation, transduction of U2OS cells and selection of the knockout candidates with puromycin (at […] concentration) were performed using a previously published protoco.[37] LumiCycle (Actimetrics, Inc., Evanston, IL) detect for U2OS cells stably expressing Bmal1-dLuc and Per2-dLuc cells were seeded on an opaque 24-well plate. When the cells are full, which were treated with dexamethasone (DEX) (100 nmol/L final) for 2 h for resetting, 2 h later, the media of cells were replaced with bioluminescence recording media having DMEM culture medium (Gibco 21063029, 500 mL), 70 mL 12% FBS. Luciferin (0.1 mmol/L final) was added fresh to the bioluminescence media. Molecules at determined concentrations were supplied to the recording media (final DMSO concentration is 0.1%).

The subject of series [3] is human periodontal ligament stem cells. In words: qPCR of circadian clock genes in synchronized human periodontal ligament stem cells. The series is classed as cell-based. The settings on record: synchronized hPDLSCs, 5 µM, compared to DMSO and SR1078. The protocol:
RNA from liver, periodontal tissues and cell samples was prepared as previously described. Total RNA (1 ug) was synthesized into cDNA using […] (Vazyme). mRNA expression levels were normalized to GAPDH. Relative expression levels and enrichment contents were calculated using the comparative Ct Method. Primer information is detailed in Data file S1.
379 Figure S34. Exploration of the inhibitory effect of compound 9 on the targeting function of RORs. a.
380 Synthetic route of compound 9. b. Cytotoxicity assessment of compound 9 by CCK-8 assay. c.qPCR
381 analysis of downstream target genes (FGF21 and G6Pase) in compound 9-treated HepG2 cells(n=6).
382 d. Cotransfection of HEK293T cells with RORα or RORγ and reporters containing the FGF21 or
384 5μM each of Gala-SR and SR1078. (* represents the comparison with DMSO*P<0.05, n=4).
386 Figure S35. Impact of Gala-SR on circadian clock gene expression in periodontal ligament stem cells.
387 qPCR analysis of core clock genes at multiple time points in synchronized hPDLSCs treated with 5
391 Figure S36.Toxicity and safety evaluation in vivo.a. After intraperitoneal injection of Gala-SR and
392 SR1078 for 2 weeks, mouse serum was collected to measure […] (ALT, AST, CREA,
393 and BUN. ns, not significant) to assess the drugs' impact on liver function. b. HE staining was […]
On the technique in general: In qPCR the cycle at which signal appears reflects the starting amount.

[4] abbreviates: ip, 10 mg/kg, 10 mg/kg IP, read-out: MRTInf_obs (mean retention time).
Where [5] appears, read: iv, 10 mg/kg, 10 mg/kg IV, read-out: MRTInf_obs.

`O=C(Nc1ccc(C(OCO[C@@H]2O[C@H](CO)[C@H](O)[C@H](O)[C@H]2O)(C(F)(F)F)C(F)(F)F)cc1)c1ccc(C(F)(F)F)cc1` [Gala-SR]: in series [1] (10 mg/kg IP), the AUC/D was found to be 607.73 kg·ng·h/mL/mg; the AUC – broadly, concentration integrated over time – worked out at 6080 ng·h/mL; the peak concentration (Cmax) (commonly the highest concentration seen after dosing) stood at 1310 ng/mL; the Tmax (usually the time at which the peak concentration occurs) is 30 min. Further, in series [1] (10 mg/kg IP), the half-life (commonly the time needed for the level to fall by half in the phase considered) is 206 min and the concentration at 8 h is 202 ng/mL. Besides, in series [1] (10 mg/kg IV), the AUC/D turned out to be 817.62 kg·ng·h/mL/mg, the AUC was determined as 8180 ng·h/mL, the concentration peaked (Cmax) at 4990 ng/mL and the Tmax came to 30 min. The compound further had a half-life in series [1] (10 mg/kg IV) of 149 min. Also, the bioavailability – broadly, the share of a dose that reaches the circulation, judged against a reference dose that is usually intravenous – in series [1] (10 mg/kg) is ~74.3%. The MRT inf in series [1] (setting [4]) amounted to 270 min. Moreover, the MRT inf in series [1] (setting [5]) came to 178 min. In the series with human U2OS cells, the “cytotoxicity / cell compatibility” value is reported as “superior among all the evaluated groups”. In addition, at RORγ, the “difference between Gala-SR and SR1078 in RORγ reporter luminescence” value is reported as “no significant difference”; the “luminescence intensity of G6Pase and FGF21 reporter genes” value was “significantly enhanced the luminescence intensity”. Besides, in the series with PER2::LUC mice, the liver luciferase signal result is recorded as “induced within 0.5 h of treatment”. Further, in series [2], the “dose dependence of the enhancing effect on the amplitude of BMAL1” value is on record as “increases with the dose”, the “fluctuation degree (amplitude) of bioluminescence intensity” value is recorded as “further enhanced”, the “period or phase of the bioluminescence” value is listed as “neither SR1078 nor Gala-SR treatment induced any obvious alterations” and the overall bioluminescence levels result is “superior efficacy than SR1078”. The “circadian rhythm amplitude, with β-glycosidase” value in series [2] (Gala-SR + β-galactosidase (205 U/mg)) is listed as “augmentation”. In addition, in series [2] (Gala-SR + β-galactosidase inhibitor (26 mmol/L)), the “circadian rhythm amplitude, with β-glycosidase inhibitor” value was “suppression”. Also, the “rhythmic expression amplitude of BMAL1, PER1, and PER2” value in series [3] is given as “more effectively enhanced”.

Consider `O=C(Nc1ccc(C(O)(C(F)(F)F)C(F)(F)F)cc1)c1ccc(C(F)(F)F)cc1` [SR1078, reference compound], for which, in series [1] (10 mg/kg IP), the AUC/D is 190.962 kg·ng·h/mL/mg, the exposure (AUC) came out at 1910 ng·h/mL, the highest level (Cmax) was 1810 ng/mL and the Tmax turned out to be 30 min. Besides, in series [1] (10 mg/kg IP), the half-life is 58.2 min and the concentration at 8 h was 2.96 ng/mL. Also, the “MRTInf_obs (mean retention time)” value in series [1] (10 mg/kg IP, 10 mg/kg) came out at 71.64 min. In addition, in series [1] (10 mg/kg IV), the AUC/D was 254.24 kg·ng·h/mL/mg, the AUC was 2540 ng·h/mL, the Cmax was 7130 ng/mL and the Tmax was found to be 30 min. In series [1] (10 mg/kg IV), this compound had a half-life of 58.8 min. The bioavailability in series [1] (10 mg/kg) is ~75.1%. Besides, the MRT inf in series [1] (setting [4]) came out at 71.4 min. In series [1] (setting [5]), the MRT inf is 29.2 min. For the same compound, the “luminescence intensity of G6Pase and FGF21 reporter genes” value at RORγ was “significantly enhanced the luminescence intensity”. The liver luciferase signal result in the series with PER2::LUC mice is on record as “induced within 0.5 h of treatment”. Besides, in series [2], the “dose dependence of the enhancing effect on the amplitude of BMAL1” value is recorded as “difficult to further promote its efficacy”, the “fluctuation degree (amplitude) of bioluminescence intensity” value is “significant augmentation”, the “period or phase of the bioluminescence” value is recorded as “neither SR1078 nor Gala-SR treatment induced any obvious alterations” and the overall bioluminescence levels result is “significantly elevated”.
